Assays:
[1] = tested on: human Notch 1; assay: Notch-CBF1 Transactivation Assay (Notch 1); format: cell-based; settings: read-out: Notch 1 IC50; Notch-CBF1 transactivation luciferase assay in transfected HeLa cells; some values are an average of N experiments
Source text: (§1) Notch-CBF1 Transactivation Assay
(§2) The Notch-CBF1 (C-promoter binding factor I) cell based transactivation assay is based on the ability of the released Notch intracellular domain fragments (NICDs) to function as transcription factors in conjunction with CBF1 and other nuclear factors. Luciferase assays were used to measure the antagonism of Notch-CBF1 transcriptional activity. HeLa cervical cancer cells are transiently co-transfected with pCDNA3.1/Hygro plasmids containing truncated Notch 1, Notch 2, Notch 3, or Notch 4 receptors and a PGL3 luciferase reporter vector containing 4 copies of CBF1 binding site. The cells were then tested for Notch-CBF1 activity in the absence or presence of test compounds. HeLa cells, maintained in DMEM (high glucose with HEPES), 1× glutamine/penicillin/streptomycin and 10% Fetal Bovine serum, were transiently transfected in a T175 Flask (4.5×10^6 cells/flask) using the Monster Transfection Kit (Minis #MIR2906) according to manufacturers specifications. Table 13 denotes respective DNA quantity for the transfections.
(§3) Assay media (5 μL) containing test compounds in final concentrations ranging from 5 μM to 8.4×10^−5 μM (3 fold serial dilutions) were added to the cells and the cell plates were then incubated for 18 hours at 37° C. and 5% CO2. Control wells contained DMSO vehicle (total counts) or 0.5 μM of an in-house small molecule inhibitor (background counts). Duplicates were used for each sample. Luciferase activity was measured after a 20-minute incubation with 50 μl STEADY-GLO® luciferase reagents according to manufacturer's specifications (Promega, Cat. #E2550) and analyzed by Envision plate reader (PerkinElmer, Boston, Mass.).
(§4) The antagonist effect of compounds was expressed as 100×[1−(average sample−average background)/(average total−average background)] where sample is the luciferase activity in the presence of test compound, background is equal to the luciferase activity in the presence of the small molecule inhibitor control and the total is signal induced in DMSO wells.

[2] = tested on: human Notch 3; assay: Notch-CBF1 Transactivation Assay (Notch 3); format: cell-based; settings: read-out: Notch 3 IC50; Notch-CBF1 transactivation luciferase assay in transfected HeLa cells; some values are an average of N experiments
Source text: as §1, §2, §3, §4

[3] = human metabolic stability half-life assay; settings: microsomes, human liver microsomes
Description: Metabolic Stability Half-Life Panel
Incubation with Liver Microsomes

[4] = pH 7.4, CYP-mediated metabolic stability half life, NADPH-dependent
[5] = pH 7.4, HLM (t1/2, min), CYP-mediated (NADPH-dependent), 0.5 μM compound, 45 min time course, some values are an average of N experiments

| Structure (SMILES) | IC50 [1] [nM] | IC50 [2] [nM] | half-life at 0.5 µM [3, 4] [min] | half-life at 0.5 µM [3, 5] [min] |
| --- | --- | --- | --- | --- |
| COc1cccc2c1NC(=O)[C@@H](NC(=O)[C@H](CCC(F)(F)F)[C@H](CC1(C)CC1)C(N)=O)N=C2c1ccccc1 [Example 33, (2R,3S)—N-((3S)-9-Methoxy-2-oxo-5-phenyl-2,3-dihydro-1H-1,4-benzodiazepin-3-yl)-3-((1-methylcyclopropyl)methyl)-2-(3,3,3-trifluoropropyl)succinamide] | 3.8 | 5.9 | ≥ 30 | 47 |
| COc1ccc2c(c1F)NC(=O)[C@@H](NC(=O)[C@H](CCC(F)(F)F)[C@H](CC1CC1)C(N)=O)N=C2c1ccccc1 [Example 29, (2R,3S)-3-(Cyclopropylmethyl)-N-((3S)-9-fluoro-8-methoxy-2-oxo-5-phenyl-2,3-dihydro-1H-1,4-benzodiazepin-3-yl)-2-(3,3,3-trifluoropropyl)succinamide] | 3.1 | 7.1 | ≥ 30 | 99 |
| CCC[C@H](C(N)=O)[C@@H](CCC(F)(F)F)C(=O)N[C@H]1N=C(c2ccccc2)c2ccc(Br)c(OC)c2NC1=O [Example 39, (2R,3S)—N-((3S)-8-Bromo-9-methoxy-2-oxo-5-phenyl-2,3-dihydro-1H-1,4-benzodiazepin-3-yl)-3-propyl-2-(3,3,3-trifluoropropyl)succinamide] | 13.4 | 12 | ≥ 30 | 38 |
| COc1cccc2c1NC(=O)[C@@H](NC(=O)[C@H](CCC(F)(F)F)[C@H](CC1CC1)C(N)=O)N=C2c1cccc(F)c1 [Example 4, (2R,3S)-3-(Cyclopropylmethyl)-N-((3S)-5-(3-fluorophenyl)-9-methoxy-2-oxo-2,3-dihydro-1H-1,4-benzodiazepin-3-yl)-2-(3,3,3-trifluoropropyl)succinamide] | 4.2 | 8.1 | ≥ 30 | 83 |
| Cc1cc(F)cc(C2=N[C@H](NC(=O)[C@H](CCC(F)(F)F)[C@H](CC3CC3)C(N)=O)C(=O)Nc3c(Cl)cccc32)c1 [Example 3, (2R,3S)—N-((3S)-9-Chloro-5-(3-fluoro-5-methylphenyl)-2-oxo-2,3-dihydro-1H-benzo[e][1,4]diazepin-3-yl)-3-(cyclopropylmethyl)-2-(3,3,3-trifluoropropyl)succinamide] | 5.1 | 7.5 | ≥ 30 | 77 |
| CN1C(=O)[C@@H](NC(=O)[C@H](CCC(F)(F)F)[C@H](CC2CC2)C(N)=O)N=C(c2ccccc2)c2cccc(F)c21 [Example 20, (2R,3S)-3-(Cyclopropylmethyl)-N-((3S)-9-fluoro-1-methyl-2-oxo-5-phenyl-2,3-dihydro-1H-1,4-benzodiazepin-3-yl)-2-(3,3,3-trifluoropropyl)succinamide] | 3.4 | 9.1 | ≥ 30 | 106 |
| COc1cccc2c1NC(=O)[C@@H](NC(=O)[C@H](CCC(F)(F)F)[C@H](CC1CC1)C(N)=O)N=C2c1cccc(C)c1 [Example 31, (2R,3S)-3-(Cyclopropylmethyl)-N-((3S)-9-methoxy-5-(3-methylphenyl)-2-oxo-2,3-dihydro-1H-1,4-benzodiazepin-3-yl)-2-(3,3,3-trifluoropropyl)succinamide] | 5.6 | 7.9 | ≥ 30 | 52 |
| Cc1cccc(C2=N[C@H](NC(=O)[C@H](CCC(F)(F)F)[C@H](CC3CC3)C(N)=O)C(=O)Nc3c(F)cccc32)c1 [Example 19, (2R,3S)-3-(Cyclopropylmethyl)-N-((3S)-9-fluoro-5-(3-methylphenyl)-2-oxo-2,3-dihydro-1H-1,4-benzodiazepin-3-yl)-2-(3,3,3-trifluoropropyl)succinamide] | 2.7 | 7.2 | ≥ 30 | 56 |
| Cc1ccccc1C1=N[C@H](NC(=O)[C@H](CCC(F)(F)F)[C@H](CC2CC2)C(N)=O)C(=O)Nc2c(Cl)cccc21 [Example 13, (2R,3S)—N-((3S)-9-Chloro-5-(2-methylphenyl)-2-oxo-2,3-dihydro-1H-1,4-benzodiazepin-3-yl)-3-(cyclopropylmethyl)-2-(3,3,3-trifluoropropyl)succinamide] | 2.9 | 5.1 | ≥ 30 | > 120 |
| NC(=O)[C@@H](CC1CC1)[C@@H](CCC(F)(F)F)C(=O)N[C@H]1N=C(c2ccccc2)c2cccc(C(F)(F)F)c2NC1=O [Example 36, (2R,3S)-3-(Cyclopropylmethyl)-N-((3S)-2-oxo-5-phenyl-9-(trifluoromethyl)-2,3-dihydro-1H-1,4-benzodiazepin-3-yl)-2-(3,3,3-trifluoropropyl)succinamide] | 7.9 | 8.3 | ≥ 30 | > 120 |
| CCC[C@H](C(N)=O)[C@@H](CCC(F)(F)F)C(=O)N[C@H]1N=C(c2ccccc2)c2cccc(O)c2NC1=O [Example 41, (2R,3S)—N-((3S)-9-Hydroxy-2-oxo-5-phenyl-2,3-dihydro-1H-1,4-benzodiazepin-3-yl)-3-propyl-2-(3,3,3-trifluoropropyl)succinamide] | 9.1 | 12.4 | ≥ 30 | 45 |
| COc1cccc2c1NC(=O)[C@@H](NC(=O)[C@H](CCC(F)(F)F)[C@H](CC1CC1)C(N)=O)N=C2c1ccccc1 [Example 38, (2R,3S)-3-(Cyclopropylmethyl)-N-((3S)-9-methoxy-2-oxo-5-phenyl-2,3-dihydro-1H-1,4-benzodiazepin-3-yl)-2-(3,3,3-trifluoropropyl)succinamide] | 2.3 | 3.3 | ≥ 30 | 70 |
| COc1cccc2c1NC(=O)[C@@H](NC(=O)[C@H](CCC(F)(F)F)[C@H](CC1CC1)C(N)=O)N=C2c1ccc(Cl)cc1 [Example 21, (2R,3S)—N-((3S)-5-(4-Chlorophenyl)-9-methoxy-2-oxo-2,3-dihydro-1H-1,4-benzodiazepin-3-yl)-3-(cyclopropylmethyl)-2-(3,3,3-trifluoropropyl)succinamide] | 2.4 | 2.4 | ≥ 30 | 62 |
| NC(=O)[C@@H](CC1CC1)[C@@H](CCC(F)(F)F)C(=O)N[C@H]1N=C(c2ccccc2)c2cccc(C3CC3)c2NC1=O [Example 14, (2R,3S)-3-(Cyclopropylmethyl)-N-(9-cyclopropyl-2-oxo-5-phenyl-2,3-dihydro-1H-1,4-benzodiazepin-3-yl)-2-(3,3,3-trifluoropropyl)succinamide] | 4.3 | 5.1 | ≥ 30 | 41 |
| CCC[C@H](C(N)=O)[C@@H](CCC(F)(F)F)C(=O)N[C@H]1N=C(c2ccccc2)c2cccc(C)c2NC1=O [Example 15, (2R,3S)—N-((3S)-9-Methyl-2-oxo-5-phenyl-2,3-dihydro-1H-1,4-benzodiazepin-3-yl)-3-propyl-2-(3,3,3-trifluoropropyl)succinamide] | 12.7 | 9.3 | ≥ 30 | 40 |
| NC(=O)[C@@H](CC1CC1)[C@@H](CCC(F)(F)F)C(=O)N[C@H]1N=C(c2ccccc2)c2ccc(Cl)c(Cl)c2NC1=O [Example 34, (2R,3S)-3-(Cyclopropylmethyl)-N-((3S)-8,9-dichloro-2-oxo-5-phenyl-2,3-dihydro-1H-1,4-benzodiazepin-3-yl)-2-(3,3,3-trifluoropropyl)succinamide] | 4.7 | 7.4 | ≥ 30 | > 120 |
| NC(=O)[C@@H](CC1CC1)[C@@H](CCC(F)(F)F)C(=O)N[C@H]1N=C(c2cccc(F)c2)c2cccc(F)c2NC1=O [Example 23, (2R,3S)-3-(Cyclopropylmethyl)-N-((3S)-9-fluoro-5-(3-fluorophenyl)-2-oxo-2,3-dihydro-1H-1,4-benzodiazepin-3-yl)-2-(3,3,3-trifluoropropyl)succinamide] | 4.8 | 8 | ≥ 30 | 69 |
| Cc1cccc2c1NC(=O)[C@@H](NC(=O)[C@H](CCC(F)(F)F)[C@H](CC1CC1)C(N)=O)N=C2c1ccccc1 [Example 11, (2R,3S)-3-(Cyclopropylmethyl)-N-((3S)-9-methyl-2-oxo-5-phenyl-2,3-dihydro-1H-1,4-benzodiazepin-3-yl)-2-(3,3,3-trifluoropropyl)succinamide] | 4 | 8.7 | ≥ 30 | 76 |

Source: patent US9242941B2, “Alkyl, fluoroalkyl-1,4-benzodiazepinone compounds” (BRISTOL-MYERS SQUIBB COMPANY, priority 2012, dated 2016)
